From publication PMC7060200, “Selective Binding of HSC70 and its Co-Chaperones to Structural Hotspots on CFTR” (Scientific Reports, 2020)
Where two headings read alike, the source gives them in different places. Peptide text beside a SMILES is read from it.

Legend:
HSC70 [1] = biological target: T1, HSC70 (Homo sapiens, UniProt P11142); experiment: Competition ELISA: soluble peptide vs HSC70 binding to immobilized 1097-L; conditions: for HSC70 binding site by competition screen (in words): 1 μM HSC70, 100 μM soluble peptide, Fig. 3c/5, cutoff twice SD of 733-L, n ≥ 4; for competition of HSC70 binding to immobilized 1097-L (in words): 1 μM HSC70, soluble peptide up to 100 μM
T1 construct: made in house
Method: (§1) HSC70, DJA1 and DJA2 were purified as His-tagged proteins, as described. HSC70 was also amplified by PCR with an N-terminal FLAG tag, inserted into pPROEXHTa (Invitrogen) and purified as described. HSC70 was stored in 100 mM KOAc, 20 mM HEPES-KOH pH 7.5, 5 mM MgOAC2 (buffer G), DJA1 and DJA2 in 500 mM NaCl, 20 mM HEPES-KOH pH 7.5, 5 mM MgOAC2 (buffer H). Avi-tagged CFTR NBD1 was purified as described.
(§2) The CFTR peptide library was designed as 15-mers with 10-residue overlaps covering the cytosolic sequences as in Fig. 1a and Supplemental Table S1. Synthetic peptides (Mimotopes, PepSet purity) contained an N-terminal biotin followed by linker sequence GSGS and the 15-mer sequence. […] Peptides were reconstituted in DMSO or water.
(§3) For peptide binding, streptavidin-coated black 96-well plates (Nunc Maxisorp, ThermoFisher) were pre-rinsed with PBS containing 0.05% Tween-20 (PBST), and 5 µM biotinylated peptides in 100 µl PBS were bound overnnight at 4 °C with agitation. Plates were washed with PBST and blocked with PBST containing 0.5% bovine serum albumin (BSA) for 1 h. After removal of blocking solution, 100 µl reactions containing chaperones at indicated concentrations were bound for 45 min at room temperature with agitation. HSC70 reactions were in buffer G containing 1 mM ATP, DJA1 and DJA2 reactions were in buffer H. For competition assays, chaperones and peptides were mixed at indicated concentrations immediately before the reactions were added to the plates. For detections, the plates were washed in PBST and 5 μM His-Probe-HRP conjugate (ThermoFisher) in 100 μL PBST added for 15 min with agitation. After washing in PBST, plates were developed using Amplex Red (ThermoFisher) according to manufacturer’s instructions, in a fluorescence plate reader (Tecan M1000).
(§4) Affinities were determined separately from binding curves and from competition curves. Data from binding of chaperones to immobilized peptides (Fig. 2a,b and Supplemental Fig. S2a–c) were fit to the equation 1/(1 − i) = (C/i)/Kd^B − b, where i is the relative saturation, C is the chaperone concentration (1 μM), Kd^B is the apparent dissociation constant from the binding data. In the plot of 1/(1 − i) against (C/i), the slope is 1/Kd^B, and −b is the intercept. […] In the plot of bi + (C/Kd^B)/i over D, the slope is 1/Kd^C, and e is the intercept. The amount of chaperone bound in the absence of competitor was set as i = 1.
(§5) Established statistical methods[71]–[73] were used to analyze the data for chaperone binding to the peptide library. First, biological and statistical outliers were identified with the Tukey method in two rounds, for biological and then statistical outliers. […] Binding data were represented as multiples of the standard deviations from the normal means. Binding in the presence of competitor peptides were shown as a fraction of binding in the absence of competitor, or the fraction competed calculated as 1 – fraction bound. Values were compared using a two-tailed unpaired Student’s t-test assuming unequal variance.

DJA1 [2] = biological target: T2, DJA1 (Homo sapiens, UniProt P31689); experiment: Competition ELISA: soluble peptide vs DJA1 binding to immobilized 1097-L; conditions: for DJA1 binding site by competition screen (in words): 1 μM DJA1, 100 μM soluble peptide, Fig. 3c/5, cutoff twice SD of 733-L, n ≥ 4; for competition of DJA1 binding to immobilized 1097-L (in words): 1 μM DJA1, soluble peptide up to 100 μM
T2 construct: made in house
Method: as §1, §2, §3, §4, §5

DJA2 [3] = biological target: T3, DJA2 (Homo sapiens, UniProt O60884); experiment: Competition ELISA: soluble peptide vs DJA2 binding to immobilized 1097-L; conditions: for competition of DJA2 binding to immobilized 1097-L (in words): 1 μM DJA2, soluble peptide up to 100 μM
T3 construct: made in house
Method: as §1, §2, §3, §4, §5

DJA1 [4] = biological target: T2, DJA1; experiment: ELISA binding of DJA1 to immobilized biotinylated CFTR peptides; conditions: 2 μM DJA1, absence of ATP, immobilized 15-mer; n ≥ 3
Method: as §1, §2, §3, §4, §5

DJA2 [5] = biological target: T3, DJA2; experiment: ELISA binding of DJA2 to immobilized biotinylated CFTR peptides; conditions: 2 μM DJA2, absence of ATP, immobilized 15-mer; n ≥ 3
Method: as §1, §2, §3, §4, §5

HSC70 [6] = biological target: T1, HSC70; experiment: ELISA binding of HSC70 to immobilized biotinylated CFTR peptides; conditions: 2 μM HSC70, with ATP, immobilized 15-mer; n ≥ 3
Method: as §1, §2, §3, §4, §5

T1 sequence (P11142 whole entry): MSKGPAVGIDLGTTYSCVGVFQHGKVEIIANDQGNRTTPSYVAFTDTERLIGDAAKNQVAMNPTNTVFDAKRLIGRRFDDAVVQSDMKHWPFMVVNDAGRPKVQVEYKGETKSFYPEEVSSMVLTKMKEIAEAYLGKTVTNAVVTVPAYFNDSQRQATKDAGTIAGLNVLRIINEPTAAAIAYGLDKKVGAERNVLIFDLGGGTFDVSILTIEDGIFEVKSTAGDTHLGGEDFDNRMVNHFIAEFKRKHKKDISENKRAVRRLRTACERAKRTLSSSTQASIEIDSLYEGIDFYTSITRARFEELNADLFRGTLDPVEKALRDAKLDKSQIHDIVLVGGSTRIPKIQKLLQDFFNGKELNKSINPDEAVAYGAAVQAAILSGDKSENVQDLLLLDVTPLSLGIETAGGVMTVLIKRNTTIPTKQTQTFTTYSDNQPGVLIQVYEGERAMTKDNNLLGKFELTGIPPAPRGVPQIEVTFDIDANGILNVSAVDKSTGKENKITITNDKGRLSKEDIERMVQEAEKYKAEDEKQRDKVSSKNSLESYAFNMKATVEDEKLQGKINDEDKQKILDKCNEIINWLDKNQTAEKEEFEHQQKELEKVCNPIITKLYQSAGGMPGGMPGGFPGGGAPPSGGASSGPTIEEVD
T3 sequence (O60884 whole entry): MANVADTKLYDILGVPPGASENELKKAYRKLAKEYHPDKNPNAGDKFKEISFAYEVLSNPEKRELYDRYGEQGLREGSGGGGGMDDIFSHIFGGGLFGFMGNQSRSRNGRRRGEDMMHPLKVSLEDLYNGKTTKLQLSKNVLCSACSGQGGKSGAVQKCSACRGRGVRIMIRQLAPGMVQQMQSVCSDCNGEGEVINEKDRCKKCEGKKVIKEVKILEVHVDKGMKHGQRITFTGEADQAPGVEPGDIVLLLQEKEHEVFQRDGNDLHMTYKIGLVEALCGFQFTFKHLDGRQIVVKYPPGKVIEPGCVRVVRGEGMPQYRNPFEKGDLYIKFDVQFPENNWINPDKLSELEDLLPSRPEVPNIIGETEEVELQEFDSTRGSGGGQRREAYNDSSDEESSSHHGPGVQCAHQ

Compound | HSC70 binding site by competition screen (in words) (HSC70 [1]) | competition of DJA2 binding to immobilized 1097-L (in words) (DJA2 [3]) | competition of HSC70 binding to immobilized 1097-L (in words) (HSC70 [1]) | competition of DJA1 binding to immobilized 1097-L (in words) (DJA1 [2]) | further results
ILCEHRIEA [Peptide 1402-S, NBD2 9-mer] | HSC70 site | – | – | – | –
SCVCKLMAN [Peptide 593-S, NBD1 9-mer] | – | – | – | – | DJA1 binding site by competition screen (in words) (DJA1 [2]): DJA1 site
HRIEAMLEC [Peptide 1406-S, NBD2 9-mer] | HSC70 site | – | – | – | –
QAFADCTVI [Peptide 1394-S, NBD2 9-mer] | bound by HSC70, DJA2 and DJA1 | – | – | – | DJA2 binding site by competition screen (in words) (DJA2 [3]; 1 μM DJA2, 100 μM soluble peptide, Fig. 3c/5, cutoff twice SD of 733-L, n ≥ 4): bound by HSC70, DJA2 and DJA1; DJA1 binding site by competition screen (in words) (DJA1 [2]): bound by HSC70, DJA2 and DJA1
CC[C@H](C)[C@H](NC(=O)[C@H](CCCNC(=N)N)NC(=O)[C@H](Cc1c[nH]cn1)NC(=O)[C@H](CCC(=O)O)NC(=O)[C@H](CS)NC(=O)[C@H](CC(C)C)NC(=O)[C@@H](NC(=O)[C@@H](NC(=O)[C@@H](N)[C@@H](C)O)C(C)C)[C@@H](C)CC)C(=O)N[C@@H](CCC(=O)O)C(=O)N[C@@H](C)C(=O)N[C@@H](CCSC)C(=O)N[C@@H](CC(C)C)C(=O)N[C@@H](CCC(=O)O)C(=O)N[C@@H](CS)C(=O)O [Peptide 1403-L] (H-TVILCEHRIEAMLEC-OH) | – | competed all of the chaperones well | competed all of the chaperones well | competed all of the chaperones well | Kd (DJA2 [3]): 995 nM
CC[C@H](C)[C@H](NC(=O)[C@@H](NC(=O)[C@@H](NC(=O)[C@H](CS)NC(=O)[C@H](CC(=O)O)NC(=O)[C@H](C)NC(=O)[C@H](Cc1ccccc1)NC(=O)[C@H](C)NC(=O)[C@H](CCC(N)=O)NC(=O)[C@H](CCCCN)NC(=O)[C@H](CC(C)C)NC(=O)[C@@H](NC(=O)[C@@H](N)CCCNC(=N)N)[C@@H](C)O)[C@@H](C)O)C(C)C)C(=O)N[C@@H](CC(C)C)C(=O)N[C@@H](CS)C(=O)O [Peptide 1393-L] (H-RTLKQAFADCTVILC-OH) | – | competed all of the chaperones well | competed all of the chaperones well | competed all of the chaperones well | Kd (DJA2 [3]; read-out: Kd from competition curves, DJA2): 1490 nM
488-L: NBD1 15-mer 481-495 (KIKHSGRISFCSQFS; UniProt P13569 481-495, looked up, fragment) [Peptide 488-L] | – | competed poorly | competed poorly | competed poorly | binding in peptide library screen, DJA1 (in words) (DJA1 [4]): binding by DJA1, HSC70 and DJA2, in the original screen; binding in peptide library screen, DJA2 (in words) (DJA2 [5]): binding by DJA1, HSC70 and DJA2, in the original screen; binding in peptide library screen, HSC70 (in words) (HSC70 [6]): binding by DJA1, HSC70 and DJA2, in the original screen
